Results from ChEMBL document CHEMBL6096675 (J Med Chem, 2025).
Calls of active or inactive are those of the source. The calls are words filed in the database; no cut-off is given here.

Legend:
[1] = AUC (0 to 24hrs) in rat at 1 mg/kg, iv; type: ADME, organism-based; conditions: in vivo
[2] = Plasma concentration in mouse xenografted with human H838 cells at 10 mg/kg, iv single dose measured after 6 hrs by LC-MS/MS analysis; type: ADME, organism-based, NCI-H838
[3] = biological target: Cytochrome P450 3A4 (Homo sapiens, UniProt P08684); assay: Inhibition of CYP3A4 (unknown origin) using midazolam as substrate; type: ADME
Sequence of Cytochrome P450 3A4 (P08684 whole entry): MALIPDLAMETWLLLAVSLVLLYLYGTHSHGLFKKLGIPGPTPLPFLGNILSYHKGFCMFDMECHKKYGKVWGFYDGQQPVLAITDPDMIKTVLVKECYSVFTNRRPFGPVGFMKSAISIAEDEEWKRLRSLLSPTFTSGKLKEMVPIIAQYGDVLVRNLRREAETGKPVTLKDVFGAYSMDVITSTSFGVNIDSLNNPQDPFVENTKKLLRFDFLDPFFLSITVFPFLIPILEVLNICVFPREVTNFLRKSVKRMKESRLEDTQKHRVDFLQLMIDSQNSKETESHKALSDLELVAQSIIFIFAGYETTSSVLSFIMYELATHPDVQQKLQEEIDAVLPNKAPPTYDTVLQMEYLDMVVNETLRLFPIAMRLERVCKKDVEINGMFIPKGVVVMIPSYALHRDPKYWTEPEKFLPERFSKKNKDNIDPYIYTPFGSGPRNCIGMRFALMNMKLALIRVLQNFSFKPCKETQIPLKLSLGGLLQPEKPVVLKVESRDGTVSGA

[4] = Drug uptake in tumor of mouse xenografted with human MV4-11 cells at 30 mg/kg, iv single dose measured after 168 hrs by LC-MS/MS analysis; type: ADME, organism-based, Neoplasm; conditions: read-out: Drug uptake
[5] = Half life in rat at 1 mg/kg, iv; type: ADME, organism-based; conditions: in vivo
[6] = AUC (0 to 24hrs) in mouse at 1 mg/kg, iv; type: ADME, organism-based; conditions: in vivo
[7] = Cmax in rat at 1 mg/kg, iv; type: ADME, organism-based; conditions: in vivo
[8] = Plasma concentration in mouse xenografted with human H838 cells at 10 mg/kg, iv single dose measured after 48 hrs by LC-MS/MS analysis; type: ADME, organism-based, NCI-H838
[9] = Drug uptake in tumor of human NCI-H838 cells xenografted SCID mouse model at 10 mg/kg, iv measured after 24 hrs by LC-MS/MS analysis; type: ADME, organism-based, Neoplasm; conditions: read-out: Drug uptake
[10] = Antiproliferative activity against human SMARCA4-deficient NCI-H838 cells assessed as inhibition of cell growth measured after 7 days by WST-8 assay; type: functional; conditions: NCI-H838, 168 h, time 7 day
[11] = biological target: Cytochrome P450 2C9 (Homo sapiens, UniProt P11712); assay: Inhibition of CYP2C9 (unknown origin); type: ADME
Sequence of Cytochrome P450 2C9 (P11712 whole entry): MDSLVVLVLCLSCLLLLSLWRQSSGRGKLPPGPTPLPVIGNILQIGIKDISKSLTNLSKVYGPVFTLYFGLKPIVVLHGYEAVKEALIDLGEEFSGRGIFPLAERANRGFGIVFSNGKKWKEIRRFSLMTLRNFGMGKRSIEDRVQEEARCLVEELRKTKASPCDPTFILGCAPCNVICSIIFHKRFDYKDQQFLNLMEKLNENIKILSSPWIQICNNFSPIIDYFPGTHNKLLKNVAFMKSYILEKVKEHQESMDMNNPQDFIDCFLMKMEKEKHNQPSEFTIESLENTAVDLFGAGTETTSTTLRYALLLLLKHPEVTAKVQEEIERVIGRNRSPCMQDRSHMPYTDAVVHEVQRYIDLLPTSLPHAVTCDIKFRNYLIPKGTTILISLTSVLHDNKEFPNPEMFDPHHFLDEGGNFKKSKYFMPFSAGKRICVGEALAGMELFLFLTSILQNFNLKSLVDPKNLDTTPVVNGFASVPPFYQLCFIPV

[12] = Plasma concentration in mouse xenografted with human H838 cells at 10 mg/kg, iv single dose measured after 168 hrs by LC-MS/MS analysis; type: ADME, organism-based, NCI-H838; conditions: in vivo
[13] = test system: NCI-H838; assay: In vivo anti-tumor activity against human NCI-H838 cells xenografted in SCID mouse assessed as assessed as inhibition of tumor growth at 10 mg/kg, iv measured after 3 weeks relative to control; type: functional; conditions: NCI-H838, 504 h, read-out: TGI
[14] = biological target: T1, Cytochrome P450 2C8 (Homo sapiens, UniProt P10632); assay: Inhibition of CYP2C8 (unknown origin); type: ADME
T1 sequence (P10632 whole entry): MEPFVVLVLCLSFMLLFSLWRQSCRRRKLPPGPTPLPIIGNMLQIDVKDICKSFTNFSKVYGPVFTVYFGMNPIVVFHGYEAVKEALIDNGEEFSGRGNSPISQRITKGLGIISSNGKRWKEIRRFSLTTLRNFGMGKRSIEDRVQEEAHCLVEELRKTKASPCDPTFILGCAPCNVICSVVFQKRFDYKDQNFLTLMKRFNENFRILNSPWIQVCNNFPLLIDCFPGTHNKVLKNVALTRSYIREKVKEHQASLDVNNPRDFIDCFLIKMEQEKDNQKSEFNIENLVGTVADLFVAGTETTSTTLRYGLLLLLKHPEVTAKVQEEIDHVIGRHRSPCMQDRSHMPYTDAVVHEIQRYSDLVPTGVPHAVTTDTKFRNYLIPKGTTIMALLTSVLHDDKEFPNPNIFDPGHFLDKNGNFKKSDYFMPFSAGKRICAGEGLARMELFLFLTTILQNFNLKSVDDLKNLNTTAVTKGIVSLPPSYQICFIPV

[15] = biological target: T2, Cytochrome P450 2B6 (Homo sapiens, UniProt P20813); assay: Inhibition of CYP2B6 (unknown origin); type: ADME
T2 sequence (P20813 whole entry): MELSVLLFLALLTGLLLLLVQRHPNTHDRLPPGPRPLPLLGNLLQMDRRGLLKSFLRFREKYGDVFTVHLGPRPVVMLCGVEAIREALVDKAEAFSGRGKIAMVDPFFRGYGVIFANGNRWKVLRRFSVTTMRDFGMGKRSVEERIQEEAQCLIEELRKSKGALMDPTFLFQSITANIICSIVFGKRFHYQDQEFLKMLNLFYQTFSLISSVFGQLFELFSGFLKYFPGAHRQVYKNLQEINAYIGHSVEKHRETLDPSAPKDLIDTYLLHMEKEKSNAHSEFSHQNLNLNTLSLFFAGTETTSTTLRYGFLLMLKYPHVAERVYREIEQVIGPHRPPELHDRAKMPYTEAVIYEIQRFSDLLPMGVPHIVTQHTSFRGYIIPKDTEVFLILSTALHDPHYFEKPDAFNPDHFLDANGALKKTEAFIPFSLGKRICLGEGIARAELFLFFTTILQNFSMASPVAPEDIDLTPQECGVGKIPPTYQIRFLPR

[16] = Antiproliferative activity against human SMARCA4-deficient NCI-H838 cells assessed as maximal inhibition of cell growth measured after 7 days by WST-8 assay relative to control; type: functional; conditions: time 7 day
[17] = test system: SK-MEL-28; assay: Antiproliferative activity against human SMARCA4-wild type SK-MEL-28 cells assessed as inhibition of cell growth measured after 7 days by WST-8 assay; type: functional; conditions: SK-MEL-28, 168 h, time 7 day
[18] = Metabolic stability in rat liver microsomes assessed as half life; type: ADME, Microsome
[19] = Metabolic stability in human liver microsomes assessed as half life; type: ADME, Microsome
[20] = Antiproliferative activity against human SMARCA4-deficient NCI-H1568 cells assessed as inhibition of cell growth measured after 7 days by WST-8 assay; type: functional; conditions: NCI-H1568, 168 h, time 7 day
[21] = biological target: T3, Cytochrome P450 1A2 (Homo sapiens, UniProt P05177); assay: Inhibition of CYP1A2 (unknown origin); type: ADME
T3 sequence (P05177 whole entry): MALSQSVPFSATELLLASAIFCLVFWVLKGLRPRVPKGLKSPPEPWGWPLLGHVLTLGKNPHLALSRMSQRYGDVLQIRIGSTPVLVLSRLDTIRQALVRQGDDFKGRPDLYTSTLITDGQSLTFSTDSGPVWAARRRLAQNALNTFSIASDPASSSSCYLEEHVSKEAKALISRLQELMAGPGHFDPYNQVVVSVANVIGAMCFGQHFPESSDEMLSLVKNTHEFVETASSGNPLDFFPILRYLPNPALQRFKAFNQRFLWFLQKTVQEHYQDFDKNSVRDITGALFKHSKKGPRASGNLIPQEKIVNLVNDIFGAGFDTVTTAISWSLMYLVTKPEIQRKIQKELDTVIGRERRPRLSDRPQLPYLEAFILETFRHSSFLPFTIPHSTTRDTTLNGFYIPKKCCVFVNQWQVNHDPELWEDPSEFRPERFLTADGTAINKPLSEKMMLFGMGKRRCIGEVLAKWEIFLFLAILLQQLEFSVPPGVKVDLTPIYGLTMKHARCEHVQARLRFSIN

[22] = test system: NCI-H838; assay: In vivo anti-tumor activity against human NCI-H838 cells xenografted in SCID mouse assessed as assessed as inhibition of tumor growth at 30 mg/kg, iv treated for 3 weeks measured after treatment stop; type: functional, organism-based
[23] = Plasma stability in rat plasma assessed as half life; type: ADME, cell-free
[24] = biological target: Cytochrome P450 2D6 (Homo sapiens, UniProt P10635); assay: Inhibition of CYP2D6 (unknown origin); type: ADME
Sequence of Cytochrome P450 2D6 (P10635 whole entry): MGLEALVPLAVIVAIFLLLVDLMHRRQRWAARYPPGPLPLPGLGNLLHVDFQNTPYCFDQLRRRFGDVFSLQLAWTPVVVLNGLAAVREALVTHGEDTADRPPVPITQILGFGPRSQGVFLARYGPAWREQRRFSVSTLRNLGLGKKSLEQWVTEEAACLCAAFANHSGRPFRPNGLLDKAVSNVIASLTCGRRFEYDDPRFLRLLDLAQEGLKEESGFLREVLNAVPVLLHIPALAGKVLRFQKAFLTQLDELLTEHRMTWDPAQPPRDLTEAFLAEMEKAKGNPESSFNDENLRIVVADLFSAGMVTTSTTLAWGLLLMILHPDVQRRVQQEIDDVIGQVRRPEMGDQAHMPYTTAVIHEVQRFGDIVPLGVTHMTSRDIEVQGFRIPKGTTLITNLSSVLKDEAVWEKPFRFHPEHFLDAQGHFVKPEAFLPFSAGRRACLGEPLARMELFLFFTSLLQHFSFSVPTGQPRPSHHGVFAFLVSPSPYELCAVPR

[25] = Plasma concentration in mouse xenografted with human MV4-11 cells at 30 mg/kg, iv single dose measured after 168 hrs by LC-MS/MS analysis; type: ADME, organism-based

SMILES: Cc1ncsc1-c1ccc([C@H](CN2CCOCC2)NC(=O)[C@@H]2C[C@@H](O)CN2C(=O)[C@@H](n2cc([C@H]3CC[C@H](CN4CCC(c5ccc6c(c5)-n5c(nc(=O)c7c(Cl)cccc75)C65CCCCC5)CC4)CC3)nn2)C(C)(C)C)cc1
- AUC(0-t) [1]: 753 ng·h/mL
- concentration at 6 h [2]: 585 ng/mL
- IC50 [3]: > 100 µM
- concentration at 168 h [4]: 932 ng/mL
- half-life [5]: 6.3 h
- AUC(0-t) [6]: 1740 ng·h/mL
- Cmax [7]: 2420 ng/mL
- concentration at 48 h [8]: 15 ng/mL
- concentration at 24 h [9]: 400 ng/mL
- GI50 [10]: 0.0095 µM
- IC50 [11]: > 100 µM
- Cp [12]: Below_limit_of_detection
- inhibition in vivo at 10 mg/kg [13]: 87%
- IC50 [14]: > 100 µM
- IC50 [15]: > 100 µM
- Imax [16]: 80%
- GI50 [17]: > 10 µM
- half-life [18]: > 1 h
- half-life [19]: > 1 h
- GI50 [20]: 0.0022 µM
- IC50 [21]: > 100 µM
- Activity [22]: inactive
- half-life [23]: > 2 h
- IC50 [24]: > 100 µM
- concentration at 168 h [25]: 19 ng/mL
